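At the GI50, growth is halved. TGI: concentration producing complete growth inhibition.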
Legend:
Assay in all cases: inhibition of tumour cell growth, NCI panel, 384-well format
[1] = tested on: SK-OV-3 ovarian
[2] = tested on: TK-10 renal
[3] = tested on: K-562 leukemia
[4] = tested on: A549 NSCLC
[5] = tested on: HCT-15 colon
[6] = tested on: SF-268 CNS
[7] = tested on: PC-3 prostate
[8] = tested on: NCI-H226 lung
[9] = tested on: HS 578T breast
[10] = tested on: NCI-H23 lung
[11] = tested on: OVCAR-5 ovarian
[12] = tested on: 786-0 renal
[13] = tested on: OVCAR-3 ovarian
[14] = tested on: M14 melanoma
[15] = tested on: HL-60(TB) leukemia
[16] = tested on: SN12C renal
[17] = tested on: CCRF-CEM leukemia
[18] = tested on: SF-295 CNS
[19] = tested on: UACC-62 melanoma
[20] = tested on: U251 glioblastoma
[21] = tested on: MALME-3M melanoma
[22] = tested on: ACHN renal
[23] = tested on: NCI/ADR-RES ovarian
[24] = tested on: MCF7 breast
[25] = tested on: BT-549 breast
[26] = tested on: HOP-92 NSCLC
[27] = tested on: OVCAR-8 ovarian
[28] = tested on: SK-MEL-28 melanoma
[29] = tested on: RXF 393 renal
[30] = tested on: HT29 colon
[31] = tested on: SK-MEL-5 melanoma
[32] = tested on: SW-620 colon
[33] = tested on: UACC-257 melanoma
[34] = tested on: NCI-H522 lung
[35] = tested on: COLO 205 colon
[36] = tested on: OVCAR-4 ovarian
[37] = tested on: SF-539 CNS
[38] = tested on: KM12 colon
[39] = tested on: NCI-H322M lung
[40] = tested on: IGROV1 ovarian
[41] = tested on: UO-31 renal
[42] = tested on: MDA-MB-468 breast
[43] = tested on: HCT-116 colon
[44] = tested on: EKVX NSCLC
[45] = tested on: SNB-19 CNS
[46] = tested on: MDA-MB-435 melanoma
[47] = tested on: CAKI-1 renal
[48] = tested on: DU-145 prostate
[49] = tested on: A498 renal
[50] = tested on: MOLT-4 leukemia
[51] = tested on: SNB-75 CNS
[52] = tested on: T-47D breast
[53] = tested on: MDA-MB-231 breast
[54] = tested on: RPMI-8226 leukemia
[55] = tested on: NCI-H460 NSCLC
[56] = tested on: HOP-62 NSCLC
[57] = tested on: LOX IMVI melanoma
[58] = tested on: HCC-2998 colon
[59] = tested on: SR leukemia

CCOc1ccn(-c2ccc(F)cc2)c(=O)c1C(=O)Nc1ccc(Oc2ccnc(N)c2Cl)c(F)c1
GI50 [1]: 4.37 µM | TGI [1]: 20.9 µM | GI50 [2]: 16.2 µM | TGI [2]: 95 µM | GI50 [3]: 1.6 µM | TGI [3]: 3.62 µM | GI50 [4]: 7.37 µM | TGI [4]: 26.3 µM | GI50 [5]: 4.27 µM | TGI [5]: 27.7 µM | GI50 [6]: 2.01 µM | TGI [6]: 8.11 µM | GI50 [7]: 4.15 µM | TGI [7]: 90.3 µM | GI50 [8]: 9.81 µM | TGI [8]: > 100 µM | GI50 [9]: 5.13 µM | TGI [9]: 21.2 µM | GI50 [10]: 2.64 µM | TGI [10]: 24.6 µM | GI50 [11]: 19.7 µM | TGI [11]: > 100 µM | GI50 [12]: 33.4 µM | TGI [12]: > 100 µM | GI50 [13]: 5.47 µM | TGI [13]: 27.3 µM | GI50 [14]: 2.95 µM | TGI [14]: 11.1 µM | GI50 [15]: 5.02 µM | TGI [15]: 13.6 µM | GI50 [16]: 1.95 µM | TGI [16]: 46.2 µM | GI50 [17]: 1.91 µM | TGI [17]: 3.51 µM | GI50 [18]: 3.81 µM | TGI [18]: 57.7 µM | GI50 [19]: 2.62 µM | TGI [19]: 12.4 µM | GI50 [20]: 16.3 µM | TGI [20]: > 100 µM | GI50 [21]: 4.88 µM | TGI [21]: 20.7 µM | GI50 [22]: 10.8 µM | TGI [22]: > 100 µM | GI50 [23]: 10.1 µM | TGI [23]: 28.7 µM | GI50 [24]: 11.2 µM | TGI [24]: > 100 µM | GI50 [25]: 8.41 µM | TGI [25]: 27.8 µM | GI50 [26]: 5.06 µM | TGI [26]: 25.9 µM | GI50 [27]: 14.3 µM | TGI [27]: 48.1 µM | GI50 [28]: 5.1 µM | TGI [28]: 38.7 µM | GI50 [29]: 4 µM | TGI [29]: 18.6 µM | GI50 [30]: 4.42 µM | TGI [30]: 23.3 µM | GI50 [31]: 2.99 µM | TGI [31]: 12.2 µM | GI50 [32]: 12 µM | TGI [32]: 28.9 µM | GI50 [33]: 6.47 µM | TGI [33]: 27.5 µM | GI50 [34]: 4.35 µM | TGI [34]: 15.7 µM | GI50 [35]: 2.06 µM | TGI [35]: 4.32 µM | GI50 [36]: 8.05 µM | TGI [36]: > 100 µM | GI50 [37]: 5.67 µM | TGI [37]: 26.9 µM | GI50 [38]: 0.314 µM | TGI [38]: > 100 µM | GI50 [39]: 29.3 µM | TGI [39]: > 100 µM | GI50 [40]: 6.27 µM | TGI [40]: 40.5 µM | GI50 [41]: 8.63 µM | TGI [41]: 59.3 µM | GI50 [42]: 3.97 µM | TGI [42]: 10.3 µM | GI50 [43]: 4.85 µM | TGI [43]: 18.4 µM | GI50 [44]: 9.83 µM | TGI [44]: 58.6 µM | GI50 [45]: 22.4 µM | TGI [45]: > 100 µM | GI50 [46]: 6.2 µM | TGI [46]: 39.5 µM | GI50 [47]: 4.4 µM | TGI [47]: 23.1 µM | GI50 [48]: 7.49 µM | TGI [48]: > 100 µM | GI50 [49]: 5.04 µM | TGI [49]: 85.8 µM | GI50 [50]: 1.44 µM | TGI [50]: 2.9 µM | GI50 [51]: 15.4 µM | TGI [51]: 35.1 µM | GI50 [52]: 1.67 µM | TGI [52]: 4.29 µM | GI50 [53]: 9.78 µM | TGI [53]: 49.3 µM | GI50 [54]: 3.52 µM | TGI [54]: > 100 µM | GI50 [55]: 3.35 µM | TGI [55]: 12.1 µM | GI50 [56]: 8.81 µM | TGI [56]: 98.3 µM | GI50 [57]: 5.57 µM | TGI [57]: 18.2 µM | GI50 [58]: 24.3 µM | TGI [58]: 68.1 µM

Cn1cc(-c2cnn3c(N)c(Br)c(C4CCCNC4)nc23)cn1 (configuration not stated)
GI50 [1]: 0.0621 µM | TGI [1]: 23.2 µM | GI50 [4]: 7.68 µM | TGI [4]: 28.6 µM | GI50 [5]: 2.08 µM | TGI [5]: 19.4 µM | GI50 [6]: 5.36 µM | TGI [6]: 27.2 µM | GI50 [7]: 1.8 µM | TGI [7]: 14.6 µM | GI50 [8]: 3.29 µM | TGI [8]: 18.6 µM | GI50 [9]: 0.0302 µM | TGI [9]: 18.9 µM | GI50 [10]: 0.027 µM | TGI [10]: 21.2 µM | GI50 [11]: 0.0964 µM | TGI [11]: 16.5 µM | GI50 [13]: 0.188 µM | TGI [13]: 20.3 µM | GI50 [15]: 0.032 µM | TGI [15]: 0.129 µM | GI50 [16]: 0.0371 µM | TGI [16]: 3.72 µM | GI50 [19]: 0.88 µM | TGI [19]: 15.3 µM | GI50 [20]: 5.36 µM | TGI [20]: 20.3 µM | GI50 [23]: 2.04 µM | TGI [23]: > 100 µM | GI50 [24]: 1.36 µM | TGI [24]: 17.9 µM | GI50 [25]: 0.033 µM | TGI [25]: 5.25 µM | GI50 [26]: 0.0263 µM | TGI [26]: 33.3 µM | GI50 [27]: 0.0382 µM | TGI [27]: 21.2 µM | GI50 [28]: 11.1 µM | TGI [28]: 26.5 µM | GI50 [59]: < 0.01 µM | GI50 [29]: 0.0332 µM | TGI [29]: 25 µM | GI50 [30]: 0.989 µM | TGI [30]: 12.9 µM | GI50 [31]: 0.0346 µM | TGI [31]: 1.2 µM | GI50 [33]: 2.29 µM | TGI [33]: 19.5 µM | GI50 [34]: 2.56 µM | TGI [34]: 11.4 µM | GI50 [35]: 0.922 µM | TGI [35]: 5.81 µM | GI50 [36]: < 0.01 µM | TGI [36]: 26.6 µM | GI50 [38]: 0.117 µM | TGI [38]: 15.8 µM | GI50 [39]: 0.293 µM | TGI [39]: 22.1 µM | GI50 [40]: 0.0563 µM | TGI [40]: 13.2 µM | GI50 [42]: 3.75 µM | TGI [42]: 24.4 µM | GI50 [43]: 2.01 µM | TGI [43]: 15.6 µM | GI50 [44]: 3.54 µM | TGI [44]: 23.8 µM | GI50 [45]: 0.983 µM | TGI [45]: 37.1 µM | GI50 [47]: 1.46 µM | TGI [47]: 15.2 µM | GI50 [48]: 0.227 µM | TGI [48]: 15.6 µM | GI50 [49]: < 0.01 µM | TGI [49]: 0.0226 µM | GI50 [50]: 0.0234 µM | TGI [50]: 0.053 µM | GI50 [51]: 4.99 µM | TGI [51]: 25.3 µM | GI50 [52]: 14.6 µM | TGI [52]: 37.1 µM | GI50 [53]: 2.9 µM | TGI [53]: 42.2 µM | GI50 [54]: 0.0358 µM | TGI [54]: 0.643 µM | GI50 [55]: 0.93 µM | TGI [55]: 10.9 µM | GI50 [57]: 1.33 µM | TGI [57]: 4.22 µM | GI50 [58]: < 0.01 µM | TGI [58]: 0.0624 µM
